ChEMBL document CHEMBL1201862, “PubChem BioAssay data set” (2004)
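Following 48 hours of exposure in 96-well plates, responses at five concentrations were used to interpolate endpoints linearly. GI50: concentration for 50% inhibition of growth.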 Active and inactive are the calls of the source. No stated cut-off is given here; in the data, active = GI50 up to about 1.1 µM and inactive = higher.

What was measured:
Experiment in all cases: NCI anticancer screen, dose series, 48 h
[1] = test system: LOX IMVI
[2] = test system: A549
[3] = test system: KM12
[4] = test system: BT-549
[5] = test system: A498
[6] = test system: SF-539
[7] = test system: MOLT-4
[8] = test system: HL-60
[9] = test system: HT-29
[10] = test system: UACC-62
[11] = test system: 786-0
[12] = test system: EKVX
[13] = test system: SW-620
[14] = test system: SK-MEL-5
[15] = test system: NCI-H522
[16] = test system: HCT-15
[17] = test system: OVCAR-4
[18] = test system: SK-OV-3
[19] = test system: HOP-92
[20] = test system: M14
[21] = test system: SK-MEL-2
[22] = test system: CCRF-CEM
[23] = test system: NCI-H226
[24] = test system: SK-MEL-28
[25] = test system: OVCAR-5
[26] = test system: Hs-578T
[27] = test system: HCT-116
[28] = test system: MDA-MB-231
[29] = test system: OVCAR-8
[30] = test system: OVCAR-3
[31] = test system: T47D
[32] = test system: NCI/ADR-RES
[33] = test system: SR
[34] = test system: SNB-75
[35] = test system: TK-10
[36] = test system: SF-268
[37] = test system: DU-145
[38] = test system: SN12C
[39] = test system: K562
[40] = test system: Malme-3M
[41] = test system: RXF 393
[42] = test system: UACC-257
[43] = test system: NCI-H23
[44] = test system: MDA-N
[45] = test system: MCF7
[46] = test system: PC-3
[47] = test system: HOP-62
[48] = test system: RPMI-8226
[49] = test system: HCC 2998
[50] = test system: ACHN
[51] = test system: IGROV-1
[52] = test system: U-251
[53] = test system: CAKI-1
[54] = test system: MDA-MB-435
[55] = test system: NCI-H460
[56] = test system: SF-295
[57] = test system: COLO 205
[58] = test system: SNB-19
[59] = test system: UO-31

In the case of COc1ccc(/C=C2\CCC(C)C3=C2NC(=S)NC3c2ccc(OC)c(OC)c2)cc1OC (centres undefined), the GI50 [1] is reported as 17.4 µM (inactive), the GI50 [2] is reported as 16.9 µM (inactive) and the GI50 [3] is reported as 12 µM (inactive). For the same compound, the GI50 [4] was 13.3 µM (inactive), the GI50 [5] was > 31.6 µM (inactive) and the GI50 [6] was 27.2 µM (inactive). For the same compound, the GI50 [7] was 4.99 µM (inactive), the GI50 [8] was 3.6 µM (inactive) and the GI50 [9] was 26 µM (inactive). The GI50 [10] was 20.2 µM (inactive), the GI50 [11] was 22.3 µM (inactive) and the GI50 [12] was 20.1 µM (inactive). For the same compound, the GI50 [13] was 26.1 µM (inactive), the GI50 [14] was 12.5 µM (inactive) and the GI50 [15] was > 100 µM (inactive). For the same compound, the GI50 [16] was 9.95 µM, the GI50 [17] was 35.4 µM (inactive) and the GI50 [18] was 29.9 µM (inactive). The GI50 [19] was 36.1 µM (inactive), the GI50 [20] was 19.5 µM (inactive) and the GI50 [21] was 26.5 µM (inactive). For the same compound, the GI50 [22] was 8.95 µM (inactive), the GI50 [23] was > 78 µM (inactive) and the GI50 [24] was > 31.6 µM (inactive). The GI50 [25] was > 31.6 µM (inactive), the GI50 [26] was 30.8 µM (inactive) and the GI50 [27] was 15.3 µM (inactive). The GI50 [28] was 18.2 µM (inactive), the GI50 [29] was 26.1 µM (inactive) and the GI50 [30] was 24.4 µM (inactive). For the same compound, the GI50 [31] was 2.33 µM (inactive), the GI50 [32] was 27.5 µM (inactive) and the GI50 [33] was 2.65 µM (inactive). For the same compound, the GI50 [34] was > 100 µM (inactive), the GI50 [35] was 19.7 µM (inactive) and the GI50 [36] was 25.5 µM (inactive). For the same compound, the GI50 [37] was 27.2 µM (inactive), the GI50 [38] was 24.9 µM (inactive) and the GI50 [39] was 3.99 µM (inactive). The GI50 [40] was > 10 µM (inactive), the GI50 [41] was > 10 µM (inactive) and the GI50 [42] was > 31.6 µM (inactive). For the same compound, the GI50 [43] was > 10 µM (inactive), the GI50 [44] was 3.83 µM (inactive) and the GI50 [45] was 14.9 µM (inactive). The GI50 [46] was 10.7 µM (inactive), the GI50 [47] was > 100 µM (inactive) and the GI50 [48] was 5.16 µM (inactive). The GI50 [49] was 74.1 µM (inactive), the GI50 [50] was 24.3 µM (inactive) and the GI50 [51] was 13.6 µM (inactive). For the same compound, the GI50 [52] was 24.6 µM (inactive), the GI50 [53] was 15.6 µM (inactive) and the GI50 [54] was 6.3 µM (inactive). For the same compound, the GI50 [55] was 41.8 µM (inactive), the GI50 [56] was 12 µM (inactive) and the GI50 [57] was 8.59 µM (inactive). The GI50 [58] was 30.4 µM (inactive) and the GI50 [59] was 12.6 µM (inactive).
